Source: PubChem BioAssay AID1963874 (Molecular Pharmacology Branch, DTP, NCI, 2024)

System: 253994-281-T-J1-PDC KRAS-mutant spheroids with HUVEC/MSC, viability
Experiment: Anticancer human tumor 253994-281-T-J1-PDC patient-derived colorectal carcinoma cell line growth inhibition [KRAS2]
Details: for IC50: curve of first compound; for viability, T/C: stronger effect = lower value
Summary of the method: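 Combination screen of spheroid viability in tumor-cell co-cultures with endothelial (HUVEC) and mesenchymal stem cell stroma. Each agent was tested in half-log dilutions, topping at clinical Cmax or at 10 microM without a known Cmax.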

[1] = second compound 0.1 µM, first compound 0.0316 µM
[2] = second compound 0.1 µM, first compound 0.1 µM
[3] = second compound 0.1 µM, first compound 0.316 µM
[4] = second compound 0.1 µM, first compound 1 µM
[5] = second compound 0.1 µM, first compound 3.16 µM
[6] = second compound 0.316 µM, first compound 0.0316 µM
[7] = second compound 0.316 µM, first compound 0.1 µM
[8] = second compound 0.316 µM, first compound 0.316 µM
[9] = second compound 0.316 µM, first compound 1 µM
[10] = second compound 0.316 µM, first compound 3.16 µM
[11] = second compound 1 µM, first compound 0.0316 µM
[12] = second compound 1 µM, first compound 0.1 µM
[13] = second compound 1 µM, first compound 0.316 µM
[14] = second compound 1 µM, first compound 1 µM
[15] = second compound 1 µM, first compound 3.16 µM
[16] = second compound 3.16 µM, first compound 0.0316 µM
[17] = second compound 3.16 µM, first compound 0.1 µM
[18] = second compound 3.16 µM, first compound 0.316 µM
[19] = second compound 3.16 µM, first compound 1 µM
[20] = second compound 3.16 µM, first compound 3.16 µM
[21] = second compound 10 µM, first compound 0.0316 µM
[22] = second compound 10 µM, first compound 0.1 µM
[23] = second compound 10 µM, first compound 0.316 µM
[24] = second compound 10 µM, first compound 1 µM
[25] = second compound 10 µM, first compound 3.16 µM
[26] = second compound 0.1 µM, first compound 0.01 µM
[27] = second compound 0.316 µM, first compound 0.01 µM
[28] = second compound 1 µM, first compound 0.01 µM
[29] = second compound 3.16 µM, first compound 0.01 µM
[30] = second compound 10 µM, first compound 0.01 µM
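Further: spheroids exposed to agents for seven days before readout.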
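Wherever viability, T/C is given: percent of DMSO vehicle control viability.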

Row | SMILES | IC50 (second compound 0.1 µM) | IC50 (second compound 0.316 µM) | IC50 (second compound 1 µM) | IC50 (second compound 3.16 µM) | IC50 (second compound 10 µM) | viability, T/C [1] | viability, T/C [2] | viability, T/C [3] | viability, T/C [4] | viability, T/C [5] | viability, T/C [6] | viability, T/C [7] | viability, T/C [8] | viability, T/C [9] | viability, T/C [11] | viability, T/C [12] | viability, T/C [16] | viability, T/C [17] | viability, T/C [21] | viability, T/C [22] | other results
1 | CC1(C)CCC(CN2CCN(c3ccc(C(=O)NS(=O)(=O)c4ccc(NCC5CCOCC5)c([N+](=O)[O-])c4)c(Oc4cnc5[nH]ccc5c4)c3)CC2)=C(c2ccc(Cl)cc2)C1 + C=CC(=O)N1CCN(c2nc(=O)n(-c3c(C)ccnc3C(C)C)c3nc(-c4c(O)cccc4F)c(F)cc23)C(C)C1 | > 10000 nM | > 10000 nM | > 10000 nM | > 10000 nM | > 10000 nM | 107% | 92.5% | 100% | 99.5% | 93.3% | 96.6% | 92.9% | 100% | 98.8% | 100% | 105% | 97.3% | 99.9% | 105% | 98.3% | viability, T/C (second compound 0.1 µM, first compound 10 µM): 78.8%; viability, T/C [10]: 87.3%; viability, T/C (second compound 0.316 µM, first compound 10 µM): 71.5%; viability, T/C [13]: 107%; viability, T/C [14]: 100%; viability, T/C [15]: 88.1%; viability, T/C (second compound 1 µM, first compound 10 µM): 62.7%; viability, T/C [18]: 88.8%; viability, T/C [19]: 96.3%; viability, T/C [20]: 84.8%; viability, T/C (second compound 3.16 µM, first compound 10 µM): 77.9%; viability, T/C [23]: 94.4%; viability, T/C [24]: 89.2%; viability, T/C [25]: 87.9%; viability, T/C (second compound 10 µM, first compound 10 µM): 83.3%
2 | CN(C)C/C=C/C(=O)Nc1cc2c(Nc3ccc(F)c(Cl)c3)ncnc2cc1O[C@H]1CCOC1 + COc1cc2nc(C)nc(NC(C)c3cc(N)cc(C(F)(F)F)c3)c2cc1OC1CCOC1 | > 100 nM | > 100 nM | > 100 nM | > 100 nM | > 100 nM | 90% | 67.7% | – | – | – | 73.5% | 57.8% | – | – | 91.2% | 69.8% | 61.2% | 55.2% | 68.8% | 54.5% | viability, T/C (second compound 0.1 µM, first compound 0.000316 µM): 100%; viability, T/C (second compound 0.1 µM, first compound 0.001 µM): 98.2%; viability, T/C (second compound 0.1 µM, first compound 0.00316 µM): 108%; viability, T/C [26]: 85.8%; viability, T/C (second compound 0.316 µM, first compound 0.000316 µM): 86.3%; viability, T/C (second compound 0.316 µM, first compound 0.001 µM): 97.8%; viability, T/C (second compound 0.316 µM, first compound 0.00316 µM): 86.8%; viability, T/C [27]: 81.5%; viability, T/C (second compound 1 µM, first compound 0.000316 µM): 84.4%; viability, T/C (second compound 1 µM, first compound 0.001 µM): 88.7%; viability, T/C (second compound 1 µM, first compound 0.00316 µM): 116%; viability, T/C [28]: 90%; viability, T/C (second compound 3.16 µM, first compound 0.000316 µM): 94.8%; viability, T/C (second compound 3.16 µM, first compound 0.001 µM): 87.4%; viability, T/C (second compound 3.16 µM, first compound 0.00316 µM): 81.3%; viability, T/C [29]: 86.8%; viability, T/C (second compound 10 µM, first compound 0.000316 µM): 83.5%; viability, T/C (second compound 10 µM, first compound 0.001 µM): 84.1%; viability, T/C (second compound 10 µM, first compound 0.00316 µM): 82.9%; viability, T/C [30]: 79.2%
3 | CC(=O)OC12COC1CC(O)C1(C)C(=O)C(O)C3=C(C)C(OC(=O)C(O)C(NC(=O)OC(C)(C)C)c4ccccc4)CC(O)(C(OC(=O)c4ccccc4)C21)C3(C)C (stereo not given) + C=CC(=O)N1CCN(c2nc(=O)n(-c3c(C)ccnc3C(C)C)c3nc(-c4c(O)cccc4F)c(F)cc23)C(C)C1 | 33.8 nM | 27.6 nM | 19.2 nM | 28.3 nM | 54.8 nM | 51.4% | 26.4% | 27.2% | 29.8% | 25.3% | 43% | 34.4% | 28.1% | 25.9% | 44.4% | 29.6% | 47.9% | 33.3% | 55% | 46.6% | viability, T/C [26]: 78.6%; viability, T/C [27]: 92.4%; viability, T/C [10]: 26.8%; viability, T/C [28]: 59.9%; viability, T/C [13]: 29%; viability, T/C [14]: 27.2%; viability, T/C [15]: 25.2%; viability, T/C [29]: 69.1%; viability, T/C [18]: 27.7%; viability, T/C [19]: 27.5%; viability, T/C [20]: 28.6%; viability, T/C [30]: 71.2%; viability, T/C [23]: 29.7%; viability, T/C [24]: 30.3%; viability, T/C [25]: 36.1%
